{"source": "patent US4552882A", "about": "“7-(1-Pyrrolyl) derivatives of 1-ethyl-1,4-dihydro-4-oxoquinoline-3-carboxylic acids and 1-ethyl-1,4-dihydro-4-oxo-1,8-naphthyridine-3-carboxylic acids and their use as antimicrobial agents” (Provesan, SA, priority 1983, dated 1985)", "test": "in vivo", "settings": "mouse, ip", "description": "To determine this toxicity, C.F.L.P. strain albino mice of both sexes, weighing between 19 and 25 grams, have been used as experimental animals. After an 18 hour fast period with water \"ad libitum\" the derivatives which are the subjects of the present invention are administered intraperitoneally in 5% suspension in gum arabic. The volume of suspension administered has in all cases been 0.4 ml/20 grams (20 ml/kg), changing the concentration of the suspension according to the dose administered.\nOne hour after the administration of the derivatives, the animals are supplied with Panlab standard rat-mouse feed. The period of observation of mortality has been 7 days."}
{"smiles": "CCn1cc(C(=O)O)c(=O)c2ccc(C)nc21", "note": "[Nalidixic acid, reference compound]", "values": [{"measurement": "LD50 at 168 h", "result": 600, "unit": "mg/kg"}]}
